In ChEMBL document CHEMBL5036330, “Discovery of 8,9-seco-ent-Kaurane Diterpenoids as Potential Leads for the Treatment of Triple-Negative Breast Cancer” (J Med Chem, 2021):
Calls of active or inactive are those of the source. The rule behind the calls is not given here.

Key:
[1] = system: MDA-MB-231; experiment: Induction of apoptosis in human MDA-MB-231 cells assessed as late apoptotic cells at 5 uM measured after 24 hrs by Annexin V/Propidium iodide stain based Flow cytometry (reference value: 2.78%); assay type: functional
[2] = system: MDA-MB-231; experiment: Induction of cell cycle arrest in human MDA-MB-231 cells assessed as accumulation of cells at S phase at 1 uM measured after 24 hrs by flow cytometry (reference value: 32.2%); assay type: functional
[3] = system: MDA-MB-231; experiment: Induction of cell cycle arrest in human MDA-MB-231 cells assessed as accumulation of cells at G2 phase at 2 uM measured after 24 hrs by flow cytometry (reference value: 20.2%); assay type: functional
[4] = system: MDA-MB-468; experiment: Induction of mitochondrial depolarization in human MDA-MB-468 cells assessed as monomers at 1 uM in dark by JC10 staining based fluorescence microscopy (reference value: 8.4%); assay type: functional
[5] = system: MDA-MB-231; experiment: Induction of cell cycle arrest in human MDA-MB-231 cells assessed as accumulation of cells at G2 phase at 1 uM measured after 24 hrs by flow cytometry (reference value: 20.2%); assay type: functional
[6] = system: MDA-MB-468; experiment: Induction of mitochondrial depolarization in human MDA-MB-468 cells assessed as monomers at 2 uM in dark by JC10 staining based fluorescence microscopy (reference value: 8.4%); assay type: functional
[7] = system: MDA-MB-231; experiment: Induction of mitochondrial depolarization in human MDA-MB-231 cells assessed as aggregates at 2 uM in dark by JC10 staining based fluorescence microscopy (reference value: 94.4%); assay type: functional
[8] = system: MDA-MB-231; experiment: Induction of autophagy in human MDA-MB-231 cells assessed as elimination of p62 at 1 to 5 uM incubated for 24 hrs by Western blot analysis; assay type: functional, cell-based; conditions: dose 1-5 µM
[9] = system: MDA-MB-231; experiment: Induction of apoptosis in human MDA-MB-231 cells assessed as decrease in Bcl2/Bax ratio at 1 to 5 uM measured after 24 hrs by Western blot analysis; assay type: functional, cell-based; conditions: dose 1-5 µM
[10] = system: MDA-MB-468; experiment: Inhibition of PI3K phosphorylation in human MDA-MB-468 cells measured at 1 to 5 uM after 24 hrs by Western blot analysis; assay type: cell-based; conditions: dose 1-5 µM
[11] = system: MDA-MB-468; experiment: Induction of cell cycle arrest in human MDA-MB-468 cells assessed as accumulation of cells at G1 phase at 1 uM measured after 24 hrs by flow cytometry (reference value: 26.6%); assay type: functional
[12] = system: MDA-MB-468; experiment: Induction of mitochondrial depolarization in human MDA-MB-468 cells assessed as aggregates at 1 uM in dark by JC10 staining based fluorescence microscopy (reference value: 91.6%); assay type: functional
[13] = system: MDA-MB-231; experiment: Induction of apoptosis in human MDA-MB-231 cells assessed as late apoptotic cells at 1 uM measured after 24 hrs by Annexin V/Propidium iodide stain based Flow cytometry (reference value: 2.78%); assay type: functional
[14] = system: MDA-MB-468; experiment: Anticancer activity in human MDA-MB-468 cells xenografted mouse model assessed as tumor growth inhibition at 5 mg/kg, ip treated for 33 days relative to control; assay type: functional, organism-based; conditions: time 33.0 day
[15] = Toxicity in NOD/SCID mouse assessed as cytotoxicity in lung at 10 mg/kg, ip treated for 33 days by H&E staining analysis; assay type: organism-based; conditions: in vivo, 792 h, time 33 day
[16] = system: MDA-MB-468; experiment: Induction of apoptosis in human MDA-MB-468 cells assessed as decrease in Bcl2/Bax ratio at 1 to 5 uM measured after 24 hrs by Western blot analysis; assay type: functional, cell-based; conditions: dose 1-5 µM
[17] = system: MDA-MB-231; experiment: Induction of cell cycle arrest in human MDA-MB-231 cells assessed as accumulation of cells at S phase at 2 uM measured after 24 hrs by flow cytometry (reference value: 32.2%); assay type: functional
[18] = system: MDA-MB-468; experiment: Antitumor activity against human MDA-MB-468 cells xenografted in NOD/SCID mouse assessed as decrease in Ki67 expression in tumor tissue at 5 to 10 mg/kg, ip treated for 33 days by immunohistochemical analysis; assay type: functional, organism-based; conditions: dose 5-10 mg/kg, time 33.0 day
[19] = biological target: RAC-alpha serine/threonine-protein kinase (Homo sapiens) (UniProt P31749); experiment: Binding affinity to Akt1 in human MDA-MB-468 cells assessed as shifted melting curve at 2 uM by CETSA assay; assay type: cell-based
[20] = system: MDA-MB-231; experiment: Induction of cell cycle arrest in human MDA-MB-231 cells assessed as accumulation of cells at G2 phase at 5 uM measured after 24 hrs by flow cytometry (reference value: 20.2%); assay type: functional
[21] = system: MCF7; experiment: Cytotoxicity against human MCF7 cells assessed as reduction in cell viability incubated for 96 hrs by MTT method; assay type: functional, cell-based; conditions: MCF7, 96 h
[22] = system: MDA-MB-231; experiment: Antiinvasive activity against human MDA-MB-231 cells measured upto 72 hrs by transwell invasion assay relative to control; assay type: functional, cell-based; conditions: dose 0.1-0.2 µM, time hrs <=72
[23] = system: MDA-MB-231; experiment: Induction of cell cycle arrest in human MDA-MB-231 cells assessed as accumulation of cells at G1 phase at 1 uM measured after 24 hrs by flow cytometry (reference value: 47.7%); assay type: functional
[24] = biological target: RAC-alpha serine/threonine-protein kinase (Homo sapiens) (UniProt P31749); experiment: Binding affinity to Akt1 in human MDA-MB-231 cells assessed as shifted melting curve at 2 uM by CETSA assay; assay type: cell-based
[25] = system: MDA-MB-231; experiment: Induction of mitochondrial depolarization in human MDA-MB-231 cells assessed as aggregates at 5 uM in dark by JC10 staining based fluorescence microscopy (reference value: 94.4%); assay type: functional
[26] = system: MDA-MB-231; experiment: Induction of autophagy in human MDA-MB-231 cells assessed as increase in LC3-II expression at 1 to 5 uM incubated for 24 hrs by Western blot analysis; assay type: functional, cell-based; conditions: dose 1-5 µM
[27] = system: MDA-MB-231; experiment: Induction of cell cycle arrest in human MDA-MB-231 cells assessed as accumulation of cells at S phase at 5 uM measured after 24 hrs by flow cytometry (reference value: 32.2%); assay type: functional
[28] = system: MDA-MB-468; experiment: Induction of apoptosis in human MDA-MB-468 cells assessed as early apoptotic cells at 2 uM measured after 24 hrs by Annexin V/Propidium iodide stain based Flow cytometry (reference value: 7.98%); assay type: functional
[29] = system: MDA-MB-468; experiment: Effect on Akt expression in human MDA-MB-468 cells measured at 1 to 5 uM after 24 hrs by Western blot analysis; assay type: functional, cell-based; conditions: dose 1-5 µM
[30] = system: MDA-MB-468; experiment: Antitumor activity against human MDA-MB-468 cells xenografted in NOD/SCID mouse assessed as increase in LC3B expression in tumor tissue at 5 to 10 mg/kg, ip treated for 33 days by immunohistochemical analysis; assay type: functional, organism-based; conditions: dose 5-10 mg/kg, time 33.0 day
[31] = system: MDA-MB-468; experiment: Effect on mTOR expression in human MDA-MB-468 cells measured at 1 to 5 uM after 24 hrs by Western blot analysis; assay type: functional, cell-based; conditions: dose 1-5 µM
[32] = system: MDA-MB-231; experiment: Induction of autophagy in human MDA-MB-231 cells assessed as increase in ATG7 expression at 1 to 5 uM incubated for 24 hrs by Western blot analysis; assay type: functional, cell-based; conditions: dose 1-5 µM
[33] = system: MDA-MB-231; experiment: Inhibition of PI3K phosphorylation in human MDA-MB-231 cells measured at 1 to 5 uM after 24 hrs by Western blot analysis; assay type: cell-based; conditions: dose 1-5 µM
[34] = system: MDA-MB-468; experiment: Induction of autophagy in human MDA-MB-468 cells assessed as increase in LC3-II expression at 1 to 5 uM incubated for 24 hrs by Western blot analysis; assay type: functional, cell-based; conditions: dose 1-5 µM
[35] = system: MDA-MB-231; experiment: Induction of apoptosis in human MDA-MB-231 cells assessed as increase in cleaved PARP at 1 to 5 uM measured after 24 hrs by Western blot analysis; assay type: functional, cell-based; conditions: dose 1-5 µM

Chain of RAC-alpha serine/threonine-protein kinase (Homo sapiens) (P31749 whole entry): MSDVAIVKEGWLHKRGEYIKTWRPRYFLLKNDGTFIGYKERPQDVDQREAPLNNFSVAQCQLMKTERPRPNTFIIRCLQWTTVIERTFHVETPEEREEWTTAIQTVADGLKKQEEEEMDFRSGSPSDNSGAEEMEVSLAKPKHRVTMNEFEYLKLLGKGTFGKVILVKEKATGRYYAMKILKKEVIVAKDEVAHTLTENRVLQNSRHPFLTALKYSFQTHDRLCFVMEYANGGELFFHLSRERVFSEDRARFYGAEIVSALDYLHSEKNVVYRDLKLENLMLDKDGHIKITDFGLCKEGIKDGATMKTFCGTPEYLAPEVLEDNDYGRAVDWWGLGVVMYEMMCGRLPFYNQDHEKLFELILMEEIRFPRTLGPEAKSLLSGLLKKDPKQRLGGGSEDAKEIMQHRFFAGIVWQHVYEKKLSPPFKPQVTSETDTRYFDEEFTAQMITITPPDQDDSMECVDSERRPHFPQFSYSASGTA

Structure (SMILES): C=C1C(=O)C2=C[C@H]1CCC(=O)[C@]1(C)[C@H](O)CCC(C)(C)[C@H]1C[C@H]2O
- Activity [1]: 28%
- Activity [2]: 37%
- Activity [3]: 31.7%
- Activity [4]: 38.4%
- Activity [5]: 29.2%
- Activity [6]: 78.5%
- Activity [7]: 56.9%
- Activity [8]: Active
- Activity [9]: Active
- inhibition [10]: inactive
- Activity [11]: 14.3%
- Activity [12]: 61.6%
- Activity [13]: 11.2%
- Activity [14]: Active
- Activity [15]: Non-Toxic
- Activity [16]: Active
- Activity [17]: 34.5%
- Activity [18]: Active
- Activity [19]: Active
- Activity [20]: 37.4%
- IC50 [21]: 113 nM
- Activity [22]: Dose-Dependent Effect
- Activity [23]: 33.7%
- Activity [24]: Active
- Activity [25]: 23.8%
- Activity [26]: Active
- Activity [27]: 35.1%
- Activity [28]: 35.5%
- Activity [29]: inactive
- Activity [30]: Active
- Activity [31]: inactive
- Activity [32]: Active
- inhibition [33]: inactive
- Activity [34]: Active
- Activity [35]: Active
